Assay results as given in ChEMBL document CHEMBL5113438, “Discovery of highly potent and selective CRBN-recruiting EGFRL858R/T790M degraders in vivo” (Eur J Med Chem, 2022).

Experiments:
A549 = assay: Antiproliferative activity against human A549 cells expressing wild type EGFR incubated for 72 hrs by CCK-8 assay; type: functional, cell-based; conditions: A549, 72 h
HCC827 = assay: Antiproliferative activity against human NCI-HCC827 cells expressing EGFR del19 incubated for 72 hrs by CCK-8 assay; type: functional, cell-based; conditions: HCC827, 72 h
NCI-H1975 [1] = assay: Antiproliferative activity against human NCI-H1975 cells expressing EGFR L858R/T790M incubated for 72 hrs by CCK-8 assay; type: functional, cell-based; conditions: NCI-H1975, 72 h
[2] = Selectivity ratio IC50 for human NCI-H1299 cells expressing wild type EGFR to human NCI-H1975 cells expressing EGFR L858R/T790M; type: functional
NCI-H1299 [3] = assay: Antiproliferative activity against human NCI-H1299 cells expressing wild type EGFR incubated for 72 hrs by CCK-8 assay; type: functional, cell-based; conditions: NCI-H1299, 72 h
[4] = target: von Hippel-Lindau disease tumor suppressor/Epidermal growth factor receptor (Homo sapiens, UniProt P00533+P40337, L858R/T790M); assay: Protac activity at VHL/EGFR L858R/T790M mutant in human NCI-H1975 cells assessed as induction of degradation of EGFR incubated for 24 hrs in presence of afatinib by immunoblot analysis; type: cell-based
BaF3 [5] = assay: Antiproliferative activity against mouse BaF3 harbouring EGFR L858R/T790M mutant assessed as inhibition of cell growth incubated for 72 hrs by MTS assay; type: functional, cell-based; conditions: BaF3, 72 h
BaF3 [6] = assay: Antiproliferative activity against mouse BaF3 harbouring EGFR L858R/T790M/C797S mutant assessed as inhibition of cell growth incubated for 72 hrs by MTS assay; type: functional, cell-based; conditions: BaF3, 72 h
BaF3 [7] = assay: Antiproliferative activity against mouse BaF3 harbouring EGFR L858R/T790M/L718Q mutant assessed as inhibition of cell growth incubated for 72 hrs by MTS assay; type: functional, cell-based; conditions: BaF3, 72 h
NCI-H1299 [8] = assay: Induction of apoptosis in human NCI-H1299 cells assessed as late apoptotic cells at 1.0 uM incubated for 48 hrs by AnnexinV-FITC/propidium iodide staining based flow cytometry analysis (reference value: 1.53 % ); type: functional
[9] = Plasma protein binding in rat assessed as unbound fraction at 1 uM incubated for 4 hrs by rapid equilibrium dialysis method; type: ADME, cell-free; conditions: read-out: PPB (converted)
NCI-H1299 [10] = assay: Induction of apoptosis in human NCI-H1299 cells assessed as early apoptotic cells at 1.0 uM incubated for 48 hrs by AnnexinV-FITC/propidium iodide staining based flow cytometry analysis (reference value: 0.11 % ); type: functional
NCI-H1975 [11] = assay: Induction of apoptosis in human NCI-H1975 cells assessed as necrotic cells at 1.0 uM incubated for 48 hrs by AnnexinV-FITC/propidium iodide staining based flow cytometry analysis (reference value: 3.28 % ); type: functional
NCI-H1299 [12] = assay: Induction of apoptosis in human NCI-H1299 cells assessed as necrotic cells at 1.0 uM incubated for 48 hrs by AnnexinV-FITC/propidium iodide staining based flow cytometry analysis (reference value: 0.24 % ); type: functional
NCI-H1975 [13] = assay: Induction of apoptosis in human NCI-H1975 cells assessed as viable cells at 1.0 uM incubated for 48 hrs by AnnexinV-FITC/propidium iodide staining based flow cytometry analysis (reference value: 96.2 % ); type: functional; conditions: read-out: Activity
NCI-H1299 [14] = assay: Induction of apoptosis in human NCI-H1299 cells assessed as necrotic cells at 0.1 uM incubated for 48 hrs by AnnexinV-FITC/propidium iodide staining based flow cytometry analysis (reference value: 0.24 % ); type: functional
NCI-H1975 [15] = assay: Induction of apoptosis in human NCI-H1975 cells assessed as viable cells at 0.1 uM incubated for 48 hrs by AnnexinV-FITC/propidium iodide staining based flow cytometry analysis (reference value: 96.2 % ); type: functional; conditions: read-out: Activity
NCI-H1299 [16] = assay: Induction of apoptosis in human NCI-H1299 cells assessed as viable cells at 1.0 uM incubated for 48 hrs by AnnexinV-FITC/propidium iodide staining based flow cytometry analysis (reference value: 98.05 % ); type: functional; conditions: read-out: Activity
NCI-H1299 [17] = assay: Induction of apoptosis in human NCI-H1299 cells assessed as late apoptotic cells at 0.1 uM incubated for 48 hrs by AnnexinV-FITC/propidium iodide staining based flow cytometry analysis (reference value: 1.53 % ); type: functional
NCI-H1299 [18] = assay: Induction of apoptosis in human NCI-H1299 cells assessed as viable cells at 0.1 uM incubated for 48 hrs by AnnexinV-FITC/propidium iodide staining based flow cytometry analysis (reference value: 98.05 % ); type: functional; conditions: read-out: Activity
NCI-H1975 [19] = assay: Induction of apoptosis in human NCI-H1975 cells assessed as early apoptotic cells at 1.0 uM incubated for 48 hrs by AnnexinV-FITC/propidium iodide staining based flow cytometry analysis (reference value: 0.11 % ); type: functional
NCI-H1299 [20] = assay: Induction of apoptosis in human NCI-H1299 cells assessed as early apoptotic cells at 0.1 uM incubated for 48 hrs by AnnexinV-FITC/propidium iodide staining based flow cytometry analysis (reference value: 0.11 % ); type: functional
NCI-H1975 [21] = assay: Induction of apoptosis in human NCI-H1975 cells assessed as necrotic cells at 0.1 uM incubated for 48 hrs by AnnexinV-FITC/propidium iodide staining based flow cytometry analysis (reference value: 3.28 % ); type: functional
NCI-H1975 [22] = assay: Induction of apoptosis in human NCI-H1975 cells assessed as late apoptotic cells at 1.0 uM incubated for 48 hrs by AnnexinV-FITC/propidium iodide staining based flow cytometry analysis (reference value: 1.35 % ); type: functional
NCI-H1975 [23] = assay: Induction of apoptosis in human NCI-H1975 cells assessed as late apoptotic cells at 0.1 uM incubated for 48 hrs by AnnexinV-FITC/propidium iodide staining based flow cytometry analysis (reference value: 1.35 % ); type: functional
NCI-H1975 [24] = assay: Induction of apoptosis in human NCI-H1975 cells assessed as early apoptotic cells at 0.1 uM incubated for 48 hrs by AnnexinV-FITC/propidium iodide staining based flow cytometry analysis (reference value: 0.11 % ); type: functional

Chain of von Hippel-Lindau disease tumor suppressor/Epidermal growth factor receptor (P00533 25-1210 T790M/L858R limits assumed, stated change not applied): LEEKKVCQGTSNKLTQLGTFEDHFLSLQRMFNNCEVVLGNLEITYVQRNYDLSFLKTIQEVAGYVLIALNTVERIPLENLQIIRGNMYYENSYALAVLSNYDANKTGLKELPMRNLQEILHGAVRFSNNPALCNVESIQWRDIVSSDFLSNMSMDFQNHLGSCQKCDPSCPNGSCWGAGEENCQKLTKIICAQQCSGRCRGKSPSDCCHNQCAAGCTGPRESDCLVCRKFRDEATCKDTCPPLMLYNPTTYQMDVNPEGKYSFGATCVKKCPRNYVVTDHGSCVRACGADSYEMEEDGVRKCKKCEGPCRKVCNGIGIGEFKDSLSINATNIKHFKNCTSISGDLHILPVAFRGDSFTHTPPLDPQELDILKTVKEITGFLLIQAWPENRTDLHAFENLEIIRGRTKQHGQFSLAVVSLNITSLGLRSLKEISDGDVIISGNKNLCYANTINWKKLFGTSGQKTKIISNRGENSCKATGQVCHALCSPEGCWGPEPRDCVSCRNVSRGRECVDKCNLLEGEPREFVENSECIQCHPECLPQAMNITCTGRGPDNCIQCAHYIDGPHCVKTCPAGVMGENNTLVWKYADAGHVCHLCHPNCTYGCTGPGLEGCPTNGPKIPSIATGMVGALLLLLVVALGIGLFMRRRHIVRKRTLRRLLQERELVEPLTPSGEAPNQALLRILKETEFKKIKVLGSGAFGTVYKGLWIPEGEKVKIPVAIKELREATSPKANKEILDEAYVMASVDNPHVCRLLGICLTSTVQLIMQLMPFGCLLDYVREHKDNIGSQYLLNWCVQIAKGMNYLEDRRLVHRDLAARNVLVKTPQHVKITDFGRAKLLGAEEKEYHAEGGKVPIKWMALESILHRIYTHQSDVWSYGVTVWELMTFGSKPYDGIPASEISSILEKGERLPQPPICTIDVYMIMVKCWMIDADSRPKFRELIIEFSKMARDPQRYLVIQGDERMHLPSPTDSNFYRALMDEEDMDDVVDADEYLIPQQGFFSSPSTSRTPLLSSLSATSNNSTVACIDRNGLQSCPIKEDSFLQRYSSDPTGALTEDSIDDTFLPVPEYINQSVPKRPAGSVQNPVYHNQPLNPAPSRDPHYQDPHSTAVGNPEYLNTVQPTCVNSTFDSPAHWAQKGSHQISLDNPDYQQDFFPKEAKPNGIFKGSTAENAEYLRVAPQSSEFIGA
Chain of von Hippel-Lindau disease tumor suppressor/Epidermal growth factor receptor (P40337 whole entry, stated change not applied): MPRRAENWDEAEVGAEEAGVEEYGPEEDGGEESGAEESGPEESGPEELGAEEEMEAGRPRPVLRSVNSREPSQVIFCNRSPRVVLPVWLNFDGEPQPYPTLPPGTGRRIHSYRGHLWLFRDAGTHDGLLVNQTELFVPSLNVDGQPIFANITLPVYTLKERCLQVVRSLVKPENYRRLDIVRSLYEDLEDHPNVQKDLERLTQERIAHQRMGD

Row | Compound | IC50 (A549) | IC50 (HCC827) | IC50 (NCI-H1975 [1]) | Ratio IC50 [2] | IC50 (NCI-H1299 [3]) | further results
1 | C#CCN(CCCCCCCCCC(=O)Nc1cccc2c1CN(C1CCC(=O)NC1=O)C2=O)CCN(C)c1cc(OC)c(Nc2nccc(-c3cn(C)c4ccccc34)n2)cc1NC(=O)C=C (stereo unspecified) | > 100000 nM | 2650 nM | 6800 nM | 14 | > 100000 nM | –
2 | C#CCN(CCCCCCCCC(=O)Nc1cccc2c1CN(C1CCC(=O)NC1=O)C2=O)CCN(C)c1cc(OC)c(Nc2nccc(-c3cn(C)c4ccccc34)n2)cc1NC(=O)C=C (stereo unspecified) | > 100000 nM | 1160 nM | 3230 nM | 31 | > 100000 nM | –
3 | C#CCN(CCCCCCCC(=O)Nc1cccc2c1CN(C1CCC(=O)NC1=O)C2=O)CCN(C)c1cc(OC)c(Nc2nccc(-c3cn(C)c4ccccc34)n2)cc1NC(=O)C=C (stereo unspecified) | > 100000 nM | 457 nM | 1360 nM | 74 | > 100000 nM | –
4 | Cc1ccsc1-c1ccc(CNC(=O)[C@@H]2C[C@@H](O)CN2C(=O)[C@@H](NC(=O)CCCCCOCCCCOCCCCOc2cc3ncnc(Nc4ccc(F)c(Cl)c4)c3cc2NC(=O)/C=C/CN(C)C)C(C)(C)C)cc1 | – | – | – | – | – | EC50 [4]: 216 nM
5 | O=C1CCC(N2C(=O)c3cccc(NCCOCCOCCOCCN4CCN(c5ccc(-c6ccc7c(c6)C(=O)N(C(C(=O)Nc6nccs6)c6ccccc6)C7)cn5)CC4)c3C2=O)C(=O)N1 (stereo unspecified) | – | – | – | – | – | IC50 (BaF3 [5]): 50 nM; IC50 (BaF3 [6]): 41 nM; IC50 (BaF3 [7]): 28 nM
6 | C#CCN(CCCCCCC(=O)Nc1cccc2c1CN(C1CCC(=O)NC1=O)C2=O)CCN(C)c1cc(OC)c(Nc2nccc(-c3cn(C)c4ccccc34)n2)cc1NC(=O)C=C (stereo unspecified) | > 100000 nM | 358 nM | 1110 nM | 90 | > 100000 nM | –
7 | C#CCN(CCCCC(=O)Nc1cccc2c1CN(C1CCC(=O)NC1=O)C2=O)CCN(C)c1cc(OC)c(Nc2nccc(-c3cn(C)c4ccccc34)n2)cc1NC(=O)C=C (stereo unspecified) | > 100000 nM | 309 nM | 1020 nM | 98 | > 100000 nM | –
8 | C#CCN(CCCCCC(=O)Nc1cccc2c1CN(C1CCC(=O)NC1=O)C2=O)CCN(C)c1cc(OC)c(Nc2nccc(-c3cn(C)c4ccccc34)n2)cc1NC(=O)C=C (stereo unspecified) | > 100000 nM | 649 nM | 3560 nM | 28 | > 100000 nM | –
9 | C=CC(=O)Nc1cc(Nc2nccc(-c3cn(C)c4ccccc34)n2)c(OC)cc1N(C)CCN(C)C [OSIMERTINIB] | 445 nM | 2.48 nM | […] | […] | 3240 nM | Activity (NCI-H1299 [8]): 2.14%; fraction unbound at 4 h, 1 µM [9]: 0.0133; Activity (NCI-H1299 [10]): 0.075%; Activity (NCI-H1975 [11]): 7.27%; Activity (NCI-H1299 [12]): 0.5%; viability at 1 µM (NCI-H1975 [13]): 56.4%; Activity (NCI-H1299 [14]): 0.34%; viability at 0.1 µM (NCI-H1975 [15]): 90.1%; viability at 1 µM (NCI-H1299 [16]): 97.3%; Activity (NCI-H1299 [17]): […]; viability at 0.1 µM (NCI-H1299 [18]): 98.2%; Activity (NCI-H1975 [19]): 1.7%; Activity (NCI-H1299 [20]): 0.08%; Activity (NCI-H1975 [21]): 6.89%; Activity (NCI-H1975 [22]): 34.7%; Activity (NCI-H1975 [23]): 3.83%; Activity (NCI-H1975 [24]): […]
